Measured values published in patent US5929070A (Eli Lilly and Company, priority 1997, dated 1999).

What was measured:
[1] = test system: migraine pain; assay: Utility tests for migraine analgesic activity (mouse writhing, acetic acid-induced writhing, protein extravasation and related tests); format: in vivo, mice; rats; guinea pigs; rabbits; details: summary statement for the utility tests, no values given
[2] = test system: 5-HT1C receptor; assay: pharmacological studies, 5-HT1C receptor activity
[3] = test system: muscarinic cholinergic receptor; assay: pharmacological studies, muscarinic cholinergic receptor activity

## Cc1cc2c(s1)Nc1ccccc1N=C2N1CCN(C)CC1 [olanzapine, 2-methyl-4-(4-methyl-1-piperazinyl)-10H-thieno[2,3-b][1,5]benzodiazepine]
[1]
  migraine pain analgesic effect: can provide a significant migraine pain analgesic effect
[2]
  activity at the 5-HT1C receptor: active
[3]
  muscarinic cholinergic receptor activity: has muscarinic cholinergic receptor activity
